Details of series [1]: species or system rats. To be noted: rat, in vivo, sc, 80 ug. The source says: (§1) Lysozyme, an enzyme with a molecular weight intermediate between that of glucose and albumin (MW 12,000 Daltons) was used to measure diffusion kinetics through nanopore membranes both in vitro and in vivo. Radiolabeled (^125-I) lysozyme was obtained from ICN Biochemicals. Unlabeled lysozyme was obtained from Sigma Chemical Corp. Radiolabeled lysozyme was admixed with unlabeled lysozyme and loaded into implants as described above for albumin. In vitro release rates for three size membranes are plotted in FIG. 8. Lysozyme release rates are zero-order for membranes pore sizes of 13 nm and 49 nm.
Blood levels of lysozyme in groups of three rats given either a single subcutaneous bolus of 80 μg or after implantation of a nanopore implant device designed to release lysozyme at a rate of 17 μg/day are shown in FIG. 9.

Series [2] can be described thus: In vitro release of 125I-lysozyme from nanopore membrane implants.
Text: as §1

This is an account of results in patent US9433573B2, “Microfabricated nanopore device for sustained release of therapeutic agent” (Delpor, Inc., priority 2001, dated 2016).

With lysozyme, the “apparent half-life in blood stream” value in series [1] is “less than several days”. For the same substance, the “lysozyme release rates (kinetics)” value in series [2] (membrane pore sizes of 13 nm and 49 nm, in vitro) was “zero-order”. In addition, the “flux of lysozyme versus initial concentration” value in series [2] (pore size of 13 nm or less, in vitro (data not shown)) is reported as “independent of initial concentration”.
